In US9790191B2, “Substituted acylaminopyrimidines as inducers of alpha interferon production” (JANSSEN SCIENCES IRELAND UC, priority 2012, dated 2017):

What was measured:
CXCL10 mRNA = assay: Up-regulation of CXCL10 mRNA in vivo after oral administration (RT-qPCR); design: species or system C57BL/6 mice; conditions: mice
Procedure: (§1) Production of IFN-α and Up-Regulation of CXCL10 mRNA In Vivo
(§2) The potential of compounds to induce IFN-α production and CXCL10 mRNA up-regulation in vivo was evaluated after oral administration to C57BL/6 mice. The quantity of IFN-α in systemic circulation was followed over time, using a murine pan-IFN-α ELISA (PBL InterferonSource, ref. 42120). This ELISA recognizes all murine IFN-α subtypes. […] CXCL10 mRNA expression levels were followed by RT-qPCR.
For each compound and dose tested, 3 female C57BL/6J mice, from 6-10 weeks of age, 20-22 g of body weight were tested. Animals were given compound 1 as a single oral dose of 15.5 mg/kg as a 1.55 mg/mL solution in 20% aqueous hydroxypropyl β-cyclodextrin vehicle using a feeding tube. 0.5, 1, 2, 4 and 7 hours after dosing, systemic blood was drawn from the tail vein into K-EDTA containing tubes. […] At each time point, the median and standard deviation over the 3 animals was calculated to evaluate the potency of the compound.
Blood was also drawn from the tail vein into micronic tubes containing 500 μl of PAXgene solution (PAXgene blood RNA tubes from PreAnalytix). […] The ΔΔCt method (for relative quantification) was used to evaluate regulation of CXCL10 expression by the compound compared to the vehicle control. At each time point, the median and standard deviation over the 3 animals was calculated to evaluate the potency of the compounds.

IFN-α = assay: Production of IFN-α in vivo after oral administration (murine pan-IFN-α ELISA); design: species or system C57BL/6 mice; conditions: mice
Procedure: as §1, §2
For each compound and dose tested, 3 female C57BL/6J mice, from 6-10 weeks of age, 20-22 g of body weight were tested. Animals were given compound 1 as a single oral dose of 15.5 mg/kg as a 1.55 mg/mL solution in 20% aqueous hydroxypropyl β-cyclodextrin vehicle using a feeding tube. 0.5, 1, 2, 4 and 7 hours after dosing, systemic blood was drawn from the tail vein into K-EDTA containing tubes. Plasma was separated from blood cells by centrifugation at 1500 g, 10 min, 4° C. and stored at −80° C. prior to ELISA analysis. At each time point, the median and standard deviation over the 3 animals was calculated to evaluate the potency of the compound.

CCCC[C@@H](CCOC(=O)C(C)C)Nc1nc(NC(=O)C(C)C)ncc1OC [Compound 1]
observed: upregulation of CXCL10 (CXCL10 mRNA; blood, single oral dose of 15.5 mg/kg (FIG. 2B)) | upregulation of CXCL10 (CXCL10 mRNA; liver, single oral dose of 15.5 mg/kg (FIG. 2A)) | Induction of endogenous interferon (IFN-α; liver, single oral dose of 15.5 mg/kg (FIG. 1A)) | Induction of endogenous interferon (IFN-α; plasma, single oral dose of 15.5 mg/kg (FIG. 1B))
